ChEMBL document CHEMBL5465560, “Selectivity Literature for EUbOPEN Chemogenomic Library” (2024)
Blank lines part the entries; values can stand above or below the compound they belong to.

Columns and labels:
[1] = biological target: T1, Serine/threonine-protein kinase BRSK2 (Homo sapiens) (UniProt Q8IWQ3); details: at 10 µM
T1 sequence (whole entry): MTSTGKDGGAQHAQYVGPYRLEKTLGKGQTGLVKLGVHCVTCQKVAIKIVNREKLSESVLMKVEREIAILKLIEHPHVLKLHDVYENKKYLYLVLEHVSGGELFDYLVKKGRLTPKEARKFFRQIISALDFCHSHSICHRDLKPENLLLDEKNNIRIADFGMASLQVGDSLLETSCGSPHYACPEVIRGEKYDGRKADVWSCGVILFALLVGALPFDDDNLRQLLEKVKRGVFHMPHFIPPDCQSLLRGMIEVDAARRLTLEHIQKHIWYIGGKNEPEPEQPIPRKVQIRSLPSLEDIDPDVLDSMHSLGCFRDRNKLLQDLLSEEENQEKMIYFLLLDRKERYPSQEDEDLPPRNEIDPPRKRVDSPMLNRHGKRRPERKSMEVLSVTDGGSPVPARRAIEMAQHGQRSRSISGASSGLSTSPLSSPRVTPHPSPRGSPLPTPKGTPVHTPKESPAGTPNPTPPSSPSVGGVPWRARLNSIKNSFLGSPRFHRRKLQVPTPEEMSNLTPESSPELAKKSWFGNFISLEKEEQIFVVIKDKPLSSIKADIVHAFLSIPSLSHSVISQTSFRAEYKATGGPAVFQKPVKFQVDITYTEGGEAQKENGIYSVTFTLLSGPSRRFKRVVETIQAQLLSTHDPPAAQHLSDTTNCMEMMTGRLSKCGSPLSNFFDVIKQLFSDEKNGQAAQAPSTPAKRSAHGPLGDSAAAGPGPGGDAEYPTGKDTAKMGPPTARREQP

[2] = biological target: T2, Serine/threonine-protein kinase D2 (Homo sapiens) (UniProt Q9BZL6); experiment: Selectivity interaction (Kinase panel (Invitrogen)) EUB0000639a PRKD2; details: at 200 nM
T2 sequence (whole entry): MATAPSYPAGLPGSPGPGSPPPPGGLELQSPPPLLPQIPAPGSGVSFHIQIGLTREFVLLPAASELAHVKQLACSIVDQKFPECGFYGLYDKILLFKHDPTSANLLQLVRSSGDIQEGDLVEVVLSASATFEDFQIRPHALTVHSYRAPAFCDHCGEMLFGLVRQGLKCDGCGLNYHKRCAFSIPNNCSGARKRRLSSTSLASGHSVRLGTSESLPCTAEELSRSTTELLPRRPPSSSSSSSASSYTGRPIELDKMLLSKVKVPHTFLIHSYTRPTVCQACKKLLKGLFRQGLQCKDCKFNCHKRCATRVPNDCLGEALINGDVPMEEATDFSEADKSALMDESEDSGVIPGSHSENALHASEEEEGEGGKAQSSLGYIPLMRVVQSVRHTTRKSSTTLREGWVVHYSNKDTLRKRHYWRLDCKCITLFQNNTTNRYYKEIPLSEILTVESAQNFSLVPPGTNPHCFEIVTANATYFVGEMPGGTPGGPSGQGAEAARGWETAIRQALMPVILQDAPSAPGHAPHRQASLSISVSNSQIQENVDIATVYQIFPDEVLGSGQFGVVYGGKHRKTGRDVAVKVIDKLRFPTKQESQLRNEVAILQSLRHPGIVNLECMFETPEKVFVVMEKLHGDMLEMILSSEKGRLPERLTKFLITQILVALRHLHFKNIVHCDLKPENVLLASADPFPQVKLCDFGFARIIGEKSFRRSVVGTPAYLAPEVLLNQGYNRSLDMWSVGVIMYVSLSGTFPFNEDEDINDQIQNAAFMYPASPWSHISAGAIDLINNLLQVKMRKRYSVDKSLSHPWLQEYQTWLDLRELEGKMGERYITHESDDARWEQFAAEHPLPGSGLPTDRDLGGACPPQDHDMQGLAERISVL

[3] = biological target: T3, Hormonally up-regulated neu tumor-associated kinase (Homo sapiens) (UniProt P57058); experiment: Selectivity interaction (KinomeScan (DiscoverX)) EUB0001049a HUNK; details: at 1 µM
T3 sequence (whole entry): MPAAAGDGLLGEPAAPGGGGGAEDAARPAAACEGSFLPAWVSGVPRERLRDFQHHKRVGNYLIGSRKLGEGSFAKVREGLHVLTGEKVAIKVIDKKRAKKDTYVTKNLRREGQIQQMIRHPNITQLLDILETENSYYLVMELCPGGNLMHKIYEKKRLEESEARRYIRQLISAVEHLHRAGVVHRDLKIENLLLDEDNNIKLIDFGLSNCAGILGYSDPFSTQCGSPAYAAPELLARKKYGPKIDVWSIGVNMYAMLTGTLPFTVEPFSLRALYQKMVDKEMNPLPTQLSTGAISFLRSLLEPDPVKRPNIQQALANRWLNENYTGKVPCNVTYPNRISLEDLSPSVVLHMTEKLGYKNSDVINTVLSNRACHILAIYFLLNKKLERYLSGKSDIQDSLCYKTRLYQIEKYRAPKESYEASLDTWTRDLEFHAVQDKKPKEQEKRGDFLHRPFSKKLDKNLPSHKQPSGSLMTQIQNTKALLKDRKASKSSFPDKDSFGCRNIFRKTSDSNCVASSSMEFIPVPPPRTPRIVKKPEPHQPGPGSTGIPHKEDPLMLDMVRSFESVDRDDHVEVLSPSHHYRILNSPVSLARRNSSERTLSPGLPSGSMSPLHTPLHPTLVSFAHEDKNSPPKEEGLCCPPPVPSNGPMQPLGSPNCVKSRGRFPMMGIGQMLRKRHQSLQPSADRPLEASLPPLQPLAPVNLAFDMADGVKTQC

[4] = biological target: T4, Serine/threonine-protein kinase NLK (Homo sapiens) (UniProt Q9UBE8); experiment: Selectivity interaction (KinomeScan (DiscoverX)) EUB0001079a NLK; details: at 1 µM
T4 sequence (whole entry): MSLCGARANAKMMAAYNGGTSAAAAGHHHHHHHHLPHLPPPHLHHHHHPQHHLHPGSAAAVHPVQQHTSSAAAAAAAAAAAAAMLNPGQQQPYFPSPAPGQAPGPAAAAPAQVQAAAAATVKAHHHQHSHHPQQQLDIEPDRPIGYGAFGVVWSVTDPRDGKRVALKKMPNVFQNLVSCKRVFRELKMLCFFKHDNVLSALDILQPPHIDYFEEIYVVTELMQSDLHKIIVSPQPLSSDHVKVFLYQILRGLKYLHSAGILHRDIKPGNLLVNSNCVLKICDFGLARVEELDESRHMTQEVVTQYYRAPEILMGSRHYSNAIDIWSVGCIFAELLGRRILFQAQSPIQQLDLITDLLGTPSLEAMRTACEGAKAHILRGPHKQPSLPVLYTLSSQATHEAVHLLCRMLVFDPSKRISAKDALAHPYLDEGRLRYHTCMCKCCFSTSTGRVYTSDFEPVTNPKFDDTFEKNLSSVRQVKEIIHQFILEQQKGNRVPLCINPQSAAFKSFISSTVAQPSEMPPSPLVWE

- % of control [1]: 100%
SMILES: CCN(CC)CCCCNc1ncc2cc(-c3cc(OC)cc(OC)c3)c(NC(=O)NC(C)(C)C)nc2n1

- % of inhibition [2]: 5.6%
SMILES: CC[C@@H]1[C@H](F)C(=O)N[C@@H]1COc1nccc2cc(C(N)=O)c(OC)cc12 [ZIMLOVISERTIB]

SMILES: COc1cc(Nc2nc(C)cc(-c3cnn4nc(OC)ccc34)n2)cc(C(F)(F)F)c1
- % of control [3]: 99%

SMILES: Nc1cnc(N2CCc3cc(S(=O)(=O)Nc4c(F)cc(Cl)cc4F)cc(N4CCCC4=O)c32)nc1 [TP-020n]
- % of control [4]: 100%
